Source: US20130323165A1, “Magnetic Nanoplatforms for Theranostic and Multi-Modal Imaging Applications” (NORTHEASTERN UNIVERSITY, priority 2010, published 2013)
Where a name gives a salt, the structure may show the parent alone.

Columns and labels:
[1] = Drug loading into MAG-C cationic liposomes by HPLC; type: physicochemical; details: 3 mol % drug
Description: The influence of MAG-C on the efficiency of loading chemotherapeutic agents (hydrophilic and lipophilic) in cationic liposomes was evaluated by HPLC. […] The inclusion of PEG in MAG-C cationic liposomes improved incorporation of vinblastine sulfate from […]. We also evaluated the effect of MAG-C on the incorporation efficiency of the hydrophilic drug, dacarbazine at 3 mol %.

B16-F10 melanoma tumor = details: 1.35 mg/kg
[2] = test system: B16-F10 melanoma metastasis; assay: Tumor metastases (melanin pigmentation, pleural cavity)
[3] = cationic liposomes without MAG-C

incorporation (loading) efficiency ([1]; MAG-C cationic liposomes with PEG included) | incorporation (loading) efficiency [1, 3] | incorporation (loading) efficiency ([1]; cationic liposomes with 2.5 mg/ml MAG-C (SPION)) | SMILES | incorporation (loading) efficiency ([1]; cationic liposomes with 0.5 mg/ml MAG-C (SPION)) | tumor volumes compared to the untreated control group (B16-F10 melanoma tumor) | number of tumor nodules in the livers ([2]; compared to the saline control) | mice with evidence of metastasis within the pleural cavity ([2]; free drug)
7873.73% | 7876.03% | – | COc1cc([C@@H]2c3cc4c(cc3[C@@H](O[C@@H]3O[C@@H]5CO[C@@H](C)O[C@H]5[C@H](O)[C@H]3O)[C@H]3COC(=O)[C@H]23)OCO4)cc(OC)c1O [etoposide] | did not alter the incorporation efficiency | – | – | –
– | 3273.6% | no further decrease was observed | CC[C@]1(O)C[C@@H]2CN(CCc3c([nH]c4ccccc34)[C@@](C(=O)OC)(c3cc4c(cc3OC)N(C)[C@H]3[C@@](O)(C(=O)OC)[C@H](OC(C)=O)[C@]5(CC)C=CCN6CC[C@]43[C@@H]65)C2)C1 [vinblastine sulfate] | – | no significant difference in the tumor volumes | less | 5/5
